Reference: ChEMBL document CHEMBL5338805, “Discovery of the First Subnanomolar PPARα/δ Dual Agonist for the Treatment of Cholestatic Liver Diseases” (J Med Chem, 2023)
Activity calls are given as the source filed them. No cut-off for these calls is given here.

Tests used:
[1] = target: Oxysterols receptor LXR-alpha (Homo sapiens) (UniProt Q13133); assay: Agonist activity at LXRalpha (unknown origin) transfected in african green monkey COS7 cells assessed transactivation incubated at 1 uM for 16 hrs by luciferase assay; type: cell-based
Oxysterols receptor LXR-alpha (Homo sapiens), sequence (Q13133 whole entry): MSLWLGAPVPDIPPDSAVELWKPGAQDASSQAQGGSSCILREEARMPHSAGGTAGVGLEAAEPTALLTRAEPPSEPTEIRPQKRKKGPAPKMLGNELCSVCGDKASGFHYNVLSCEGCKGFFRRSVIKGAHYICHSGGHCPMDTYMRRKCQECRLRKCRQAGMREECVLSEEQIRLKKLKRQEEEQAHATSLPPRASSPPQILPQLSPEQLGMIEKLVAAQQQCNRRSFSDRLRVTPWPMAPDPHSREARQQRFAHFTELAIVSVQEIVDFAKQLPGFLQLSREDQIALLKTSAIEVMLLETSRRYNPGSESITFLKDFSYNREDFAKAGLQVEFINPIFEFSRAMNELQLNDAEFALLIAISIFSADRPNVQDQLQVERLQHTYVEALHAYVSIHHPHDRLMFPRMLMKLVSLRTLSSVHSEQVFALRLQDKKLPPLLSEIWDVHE

[2] = Mutagenicity in Salmonella typhimurium TA98 measured at 0.21 to 16.67 mg/ml for 72 hrs by mini-Ames test; type: toxicity; conditions: salmonella enterica subsp. enterica serovar typhimurium, dose 0.21-16.67 mg/ml
[3] = Anti-cholestatic activity in ANIT-induced C57BL/6Nifdc mouse model assessed as downregulation of NF-kappaB signalling pathway at 0.03 to 0.1 mg/kg, po upto 42 hrs measured after 48 hrs; type: ADME, organism-based; conditions: in vivo, 90 h, dose 0.03-0.1 mg/kg
[4] = Anti-cholestatic activity in ANIT-induced C57BL/6Nifdc mouse model assessed as downregulation of proinflammatory Nos2 gene at 0.03 to 0.1 mg/kg, po upto 42 hrs measured after 48 hrs; type: ADME, organism-based; conditions: in vivo, 90 h, dose 0.03-0.1 mg/kg
[5] = target: Retinoic acid receptor RXR-alpha (Homo sapiens) (UniProt P19793); assay: Agonist activity at RXRalpha (unknown origin) transfected in african green monkey COS7 cells assessed transactivation incubated at 1 uM for 16 hrs by luciferase assay; type: cell-based
Retinoic acid receptor RXR-alpha (Homo sapiens), sequence (P19793 whole entry): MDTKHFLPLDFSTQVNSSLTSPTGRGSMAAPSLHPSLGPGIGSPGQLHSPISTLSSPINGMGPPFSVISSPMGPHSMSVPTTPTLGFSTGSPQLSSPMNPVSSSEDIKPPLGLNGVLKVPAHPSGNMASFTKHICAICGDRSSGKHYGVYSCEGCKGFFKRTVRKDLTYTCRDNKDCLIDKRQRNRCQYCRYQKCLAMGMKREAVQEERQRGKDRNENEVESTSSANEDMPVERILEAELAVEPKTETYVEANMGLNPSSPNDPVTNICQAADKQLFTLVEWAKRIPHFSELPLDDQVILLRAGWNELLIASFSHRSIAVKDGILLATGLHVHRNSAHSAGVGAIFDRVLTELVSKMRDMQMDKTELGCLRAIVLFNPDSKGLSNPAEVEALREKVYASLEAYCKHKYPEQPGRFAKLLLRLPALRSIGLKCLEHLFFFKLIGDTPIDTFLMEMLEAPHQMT

[6] = In vivo upregulation of PPAR delta in C57BL/6JNifdc mouse liver administered at 0.03 mg/kg, po for 3 days measured after 6 hrs of last administration by real-time PCR analysis; type: ADME, organism-based; conditions: 78 h
[7] = Down-streaming of Cyp27a1 gene expression in C57BL/6JNifdc mouse liver assessed as hepatic resorption of bile acid administered at 0.03 to 0.1 mg/kg, po for 3 days measured after 6 hrs of last administration by real-time PCR analysis; type: ADME, organism-based; conditions: in vivo, 78 h, dose 0.03-0.1 mg/kg, time 3.25 day
[8] = Anti-fibrosis activity in Ccl4-induced C57BL/6Nifdc mouse model assessed as decrease in serum triglyceride level administered at 0.03 to 0.1 mg/kg,po for 3 weeks; type: ADME, organism-based; conditions: in vivo, 504 h, dose 0.03-0.1 mg/kg
[9] = AUC in fasted Sprague-Dawley rat at 2 mg/kg, IV measured at 0.083 to 24 hrs by LC-MS/MS analysis; type: ADME, organism-based; design: dose 2 mg/kg, time upper 24 hrs, time lower 0.083 hrs, route iv; conditions: in vivo
[10] = Anti-fibrosis activity in Ccl4-induced C57BL/6Nifdc mouse model assessed as decrease in hydroxyproline in liver administered orally for 3 weeks; type: ADME; conditions: in vivo, po, 504 h, dose 0.03-0.1 mg/kg
[11] = Anti-fibrosis activity in Ccl4-induced C57BL/6Nifdc mouse model assessed as reversal of increased alpha-SMA administered orally for 3 weeks by Western blot analysis; type: ADME; conditions: in vivo, po, 504 h, dose 0.03-0.1 mg/kg
[12] = Stability in human liver microsome assessed as half life at 1 uM by LC/MS-8050 analysis; type: ADME; conditions: liver microsomes
[13] = Down-streaming of Oatp1 gene expression in C57BL/6JNifdc mouse liver assessed as hepatic resorption of bile acid administered at 0.03 to 0.1 mg/kg, po for 3 days measured after 6 hrs of last administration by real-time PCR analysis; type: ADME, organism-based; conditions: in vivo, 78 h, dose 0.03-0.1 mg/kg, time 3.25 day
[14] = In vivo upregulation of PPAR delta in C57BL/6JNifdc mouse liver administered orally for 3 days measured after 6 hrs of last administration by real-time PCR analysis; type: ADME, organism-based; conditions: po, 78 h, dose 0.03-0.1 mg/kg
[15] = Upregulation of Mrp3 gene expression in C57BL/6JNifdc mouse liver assessed as increased efflux of bile acid administered at 0.03 to 0.1 mg/kg, po for 3 days measured after 6 hrs of last administration by real-time PCR analysis; type: ADME, organism-based; conditions: in vivo, 78 h, dose 0.03-0.1 mg/kg, time 3.25 day
[16] = Anti-cholestatic activity in ANIT-induced C57BL/6Nifdc mouse model assessed as decrease in liver UCA at 0.03 to 0.1 mg/kg, po upto 42 hrs measured after 48 hrs; type: ADME, organism-based; conditions: in vivo, 90 h, dose 0.03-0.1 mg/kg
[17] = AUC in fasted Sprague-Dawley rat at 10 mg/kg, po measured at 0.083 to 24 hrs by LC-MS/MS analysis; type: ADME, organism-based; design: time lower 0.083 hrs, dose 10 mg/kg, time upper 24 hrs, route po; conditions: in vivo
[18] = target: Oxysterols receptor LXR-beta (Homo sapiens) (UniProt P55055); assay: Agonist activity at LXRbeta (unknown origin) transfected in african green monkey COS7 cells assessed transactivation incubated at 1 uM for 16 hrs by luciferase assay; type: cell-based
Oxysterols receptor LXR-beta (Homo sapiens), sequence (P55055 whole entry): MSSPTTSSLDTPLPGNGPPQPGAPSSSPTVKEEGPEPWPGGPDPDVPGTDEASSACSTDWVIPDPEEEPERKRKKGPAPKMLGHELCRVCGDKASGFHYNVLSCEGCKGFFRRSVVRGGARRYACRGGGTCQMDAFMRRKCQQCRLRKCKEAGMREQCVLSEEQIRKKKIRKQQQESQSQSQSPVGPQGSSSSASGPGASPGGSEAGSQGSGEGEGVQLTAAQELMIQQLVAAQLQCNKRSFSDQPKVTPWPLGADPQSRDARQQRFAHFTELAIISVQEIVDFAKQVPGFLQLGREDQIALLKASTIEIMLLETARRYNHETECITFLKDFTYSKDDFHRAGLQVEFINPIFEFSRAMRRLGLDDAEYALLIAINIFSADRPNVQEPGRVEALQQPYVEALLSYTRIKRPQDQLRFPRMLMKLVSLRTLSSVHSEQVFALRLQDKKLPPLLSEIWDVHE

[19] = Anti-cholestatic activity in ANIT-induced C57BL/6Nifdc mouse model assessed as downregulation of proinflammatory Tnf gene at 0.03 to 0.1 mg/kg, po upto 42 hrs measured after 48 hrs; type: ADME, organism-based; conditions: in vivo, 90 h, dose 0.03-0.1 mg/kg
[20] = Down-streaming of NTCP gene expression in C57BL/6JNifdc mouse liver assessed as hepatic resorption of bile acid administered at 0.03 mg/kg, po for 3 days measured after 6 hrs of last administration by real-time PCR analysis; type: ADME, organism-based; conditions: in vivo, 78 h
[21] = target: Retinoic acid receptor gamma (Homo sapiens) (UniProt P13631); assay: Agonist activity at RARgamma (unknown origin) transfected in african green monkey COS7 cells assessed transactivation incubated at 1 uM for 16 hrs by luciferase assay; type: cell-based
Retinoic acid receptor gamma (Homo sapiens), sequence (P13631 whole entry): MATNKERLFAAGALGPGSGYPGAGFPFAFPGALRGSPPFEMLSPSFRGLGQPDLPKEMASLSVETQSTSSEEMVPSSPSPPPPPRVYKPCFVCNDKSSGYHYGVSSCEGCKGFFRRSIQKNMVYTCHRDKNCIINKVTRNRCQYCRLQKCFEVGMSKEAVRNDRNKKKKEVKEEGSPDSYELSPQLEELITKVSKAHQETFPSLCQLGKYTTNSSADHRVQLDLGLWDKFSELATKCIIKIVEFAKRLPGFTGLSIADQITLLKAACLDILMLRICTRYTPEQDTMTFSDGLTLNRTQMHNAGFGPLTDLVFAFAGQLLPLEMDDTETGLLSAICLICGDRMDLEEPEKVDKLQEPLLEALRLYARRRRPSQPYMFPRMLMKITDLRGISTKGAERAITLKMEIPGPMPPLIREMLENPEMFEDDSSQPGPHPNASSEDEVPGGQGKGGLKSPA

[22] = Anti-cholestatic activity in ANIT-induced C57BL/6Nifdc mouse model assessed as decrease in liver DHCA at 0.03 to 0.1 mg/kg, po upto 42 hrs measured after 48 hrs; type: ADME, organism-based; conditions: in vivo, 90 h, dose 0.03-0.1 mg/kg
[23] = target: Retinoic acid receptor beta (Homo sapiens) (UniProt P10826); assay: Agonist activity at RARbeta (unknown origin) transfected in african green monkey COS7 cells assessed transactivation incubated at 1 uM for 16 hrs by luciferase assay; type: cell-based
Retinoic acid receptor beta (Homo sapiens), sequence (P10826 whole entry): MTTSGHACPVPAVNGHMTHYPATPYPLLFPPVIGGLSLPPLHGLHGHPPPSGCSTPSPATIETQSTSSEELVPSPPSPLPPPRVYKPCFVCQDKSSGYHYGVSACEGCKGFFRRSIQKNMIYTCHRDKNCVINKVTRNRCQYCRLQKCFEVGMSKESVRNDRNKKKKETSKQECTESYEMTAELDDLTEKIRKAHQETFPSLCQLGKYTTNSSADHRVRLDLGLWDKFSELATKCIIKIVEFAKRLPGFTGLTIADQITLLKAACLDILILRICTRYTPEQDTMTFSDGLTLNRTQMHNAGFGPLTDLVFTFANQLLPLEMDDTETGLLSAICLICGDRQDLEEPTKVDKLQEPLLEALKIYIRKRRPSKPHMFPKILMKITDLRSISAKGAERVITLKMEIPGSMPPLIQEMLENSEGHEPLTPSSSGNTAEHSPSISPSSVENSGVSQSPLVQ

[24] = Anti-cholestatic activity in ANIT-induced C57BL/6Nifdc mouse model assessed as downregulation of proinflammatory Il6 gene at 0.03 to 0.1 mg/kg, po upto 42 hrs measured after 48 hrs; type: ADME, organism-based; conditions: in vivo, 90 h, dose 0.03-0.1 mg/kg
[25] = Anti-cholestatic activity in ANIT-induced C57BL/6Nifdc mouse model assessed as decrease in phosphorylated p65 level at 0.03 to 0.1 mg/kg, po upto 42 hrs measured after 48 hrs by Western blot analysis; type: ADME, organism-based; conditions: in vivo, 90 h, dose 0.03-0.1 mg/kg
[26] = Anti-cholestatic activity in ANIT-induced C57BL/6Nifdc mouse model assessed as decrease in liver DHLCA at 0.03 to 0.1 mg/kg, po upto 42 hrs measured after 48 hrs; type: ADME, organism-based; conditions: in vivo, 90 h, dose 0.03-0.1 mg/kg
[27] = Anti-cholestatic activity in ANIT-induced C57BL/6Nifdc mouse model assessed as decrease in total p65 level at 0.03 to 0.1 mg/kg, po upto 42 hrs measured after 48 hrs by Western blot analysis; type: ADME, organism-based; conditions: in vivo, 90 h, dose 0.03-0.1 mg/kg
COS-7 = assay: Cytotoxicity against african green monkey COS7 cells incubated upto 100 uM for 24 hrs by CCK8 assay; type: toxicity, cell-based; conditions: chlorocebus aethiops, cos-7, 24 h
[28] = Oral bioavailability in fasted Sprague-Dawley rat at 10 mg/kg measured at 0.083 to 24 hrs by LC-MS/MS analysis; type: ADME, organism-based; conditions: in vivo, time 0.083-24 hrs
[29] = Upregulation of Mdr2 gene expression in C57BL/6JNifdc mouse liver assessed as increased efflux of bile acid administered at 0.03 to 0.1 mg/kg, po for 3 days measured after 6 hrs of last administration by real-time PCR analysis; type: ADME, organism-based; conditions: in vivo, 78 h, dose 0.03-0.1 mg/kg, time 3.25 day
[30] = target: Nuclear receptor ROR-gamma (Homo sapiens) (UniProt P51449); assay: Agonist activity at RORgamma (unknown origin) transfected in african green monkey COS7 cells assessed transactivation incubated at 1 uM for 16 hrs by luciferase assay; type: cell-based
Nuclear receptor ROR-gamma (Homo sapiens), sequence (P51449 whole entry): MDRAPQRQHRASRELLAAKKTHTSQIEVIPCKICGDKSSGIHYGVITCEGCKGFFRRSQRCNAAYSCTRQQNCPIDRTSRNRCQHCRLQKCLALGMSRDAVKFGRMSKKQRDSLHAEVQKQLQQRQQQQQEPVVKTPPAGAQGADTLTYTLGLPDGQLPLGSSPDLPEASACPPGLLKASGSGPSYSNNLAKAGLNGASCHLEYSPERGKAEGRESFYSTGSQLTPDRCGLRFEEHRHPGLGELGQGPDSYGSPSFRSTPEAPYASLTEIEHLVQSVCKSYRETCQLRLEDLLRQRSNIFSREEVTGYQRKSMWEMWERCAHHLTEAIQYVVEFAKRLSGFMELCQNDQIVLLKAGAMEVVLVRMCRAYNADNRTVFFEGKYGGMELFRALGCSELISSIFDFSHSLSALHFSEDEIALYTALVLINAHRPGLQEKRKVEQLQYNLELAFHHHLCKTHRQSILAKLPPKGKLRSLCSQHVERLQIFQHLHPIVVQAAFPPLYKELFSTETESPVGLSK

Cc1cc(CN2C(=O)CN(c3ccc(C(F)(F)F)cc3)C2=O)cc(C)c1OC(C)(C)C(=O)O
Activity [1]: inactive
Activity [2]: Non-Toxic
Activity [3]: Active
Activity [4]: Active
Activity [5]: inactive
Activity [6]: Active
Activity [7]: Active
Activity [8]: Active
AUC [9]: 4250 ng·h/mL
Activity [10]: Dose-Dependent Effect
Activity [11]: Dose-Dependent Effect
half-life at 1 µM [12]: > 2 h
Activity [13]: Active
Activity [14]: Dose-Dependent Effect
Activity [15]: Active
Activity [16]: Active
AUC [17]: 22300 ng·h/mL
Activity [18]: inactive
Activity [19]: Active
Activity [20]: Active
Activity [21]: inactive
Activity [22]: Active
Activity [23]: inactive
Activity [24]: Active
Activity [25]: Active
Activity [26]: Active
Activity [27]: Active
Activity (COS-7): Non-Toxic
bioavailability [28]: 105%
Activity [29]: Active
Activity [30]: inactive
